In EP0971917B1, “THIAZOLIDINEDIONE AND OXAZOLIDINEDIONE DERIVATIVES HAVING ANTIDIABETIC, HYPOLIPIDAEMIC AND ANTIHYPERTENSIVE PROPERTIES” (DR. REDDY'S RESEARCH FOUNDATION, priority 1997, dated 1998):

Tested on: C57BL/KsJ-db/db mice
Assay: Blood sugar and triglycerides lowering activity in db/db mice (in vivo)
Details: male C57BL/KsJ-db/db mice, 10 mg/kg/day, oral gavage daily for 6 days; for Maximum reduction in blood glucose level (%): plasma glucose, glucose oxidase method; for Triglyceride lowering (%): plasma triglycerides
Description: Mutation in colonies of laboratory animals and different sensitivities to dietary regimens have made the development of animal models with non-insulin dependent diabetes associated with obesity and insulin resistance possible. Genetic models such as db/db and ob/ob (See Diabetes, (1982) 31(1) : 1- 6) in mice and fa/fa and zucker rats have been developed by the various laboratories for understanding the pathophysiology of disease and testing the efficacy of new antidiabetic compounds (Diabetes, (1983) 32: 830-838; Annu. Rep. Sankyo Res. Lab. (1994) 46 : 1-57). The homozygous animals, C57 BL/KsJ-db/db mice developed by Jackson Laboratory, US, are obese, hyperglycemic, hyperinsulinemic and insulin resistant (J. Clin. Invest., (1990) 85 : 962-967), whereas heterozygous are lean and normoglycemic. In db/db model, mouse progressively develops insulinopenia with age, a feature commonly observed in late stages of human type II diabetes when blood sugar levels are insufficiently controlled. The state of pancreas and its course vary according to the models. Since this model resembles that of type II diabetes mellitus, the compounds of the present invention were tested for blood sugar and triglycerides lowering activities.
Male C57BL/KsJ-db/db mice of 8 to 14 weeks age, having body weight range of 35 to 60 grams, procured from the Jackson Laboraotory, USA, were used in the experiment The mice were provided with standard feed (National Institute of Nutrition, Hyderabad, India) and acidified water, ad libitum. The animals having more than 300 mg / dl blood sugar were used for testing. The number of animals in each group was 4.
The random blood sugar and triglyceride levels were measured by collecting blood (100 µl) through orbital sinus, using heparinised capillary in tubes containing EDTA which was centrifuged to obtain plasma. The plasma glucose and triglycerides levels were measured spectrometrically, by glucose oxidase and glycerol-3-PO4 oxidase/peroxidase enzyme (Dr. Reddy's Lab. Diagnostic Division Kits, Hyderabad, India) methods respectively. On 6th day the blood samples were collected one hour after administration of test compounds / vehicle for assessing the biological activity.
Test compounds were suspended on 0.25 % carboxymethyl cellulose and administered to test group at a dose of 10 mg to 100 mg / kg through oral gavage daily for 6 days. The control group received vehicle (dose 10 ml / kg).

Row | Structure (SMILES) | Maximum reduction in blood glucose level (%) | Triglyceride lowering (%)
1 | Cc1nn(CCOc2ccc(CC3SC(=O)NC3=O)cc2)c(=O)c2ccccc12 (stereo not shown) [Example 6, 5-[4-[2-[4-Methyl-1-oxo-1,2-dihydro-phthalazin-2-yl]ethoxy]phenylmethyl] thiazolidin-2,4-dione] | 61% | 40%
2 | O=C1NC(=O)C(=Cc2ccc(OCCN3OCc4ccccc4C3=O)cc2)S1 [Example 11, 5-[4-[2-[4-Oxo-3,4-dihydro-1H-2,3-benzoxazin-3-yl]ethoxy]phenylmethylene]thiazolidin-2,4-dione] | 37% | 60%
